Laboratory results taken from US11076594B2, “Pyrazolone compound or salt thereof, preparation method therefor, herbicide composition and use thereof” (QINGDAO KINGAGROOT CHEMICAL COMPOUNDS CO., LTD., priority 2015, dated 2021).

Assays:
Type in all cases: in vivo
Indian mallow = experiment: weed control effect in post-emergence stage (Table 1); parameters: key: Level 10: completely dead; Level 9: above 95% growth control rate; Level 8: above 90% growth control rate; Level 7: above 80% growth control rate; Level 6: above 70% growth control rate; Level 5: above 60% growth control rate; Level 4: above 50% growth control rate; Level 3: above 20% growth control rate; Level 2: 5%-20% growth control rate; Level 1: below 5% growth control rate; details: post-emergence spray at 4-5 leaf stage, 250 g/ha active ingredient with 450 kg/ha water, rated after 3 weeks in greenhouse
How it was run: (§1)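 Fresh-weight reduction is recorded three weeks after a sprayer applies the acetone/Tween 80 aqueous compound solution to greenhouse-grown plants at the 4-5 leaf stage.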

bidens bipinnata = experiment: as above; parameters: key: Level 10: completely dead; Level 9: above 95% growth control rate; Level 8: above 90% growth control rate; Level 7: above 80% growth control rate; Level 6: above 70% growth control rate; Level 5: above 60% growth control rate; Level 4: above 50% growth control rate; Level 3: above 20% growth control rate; Level 2: 5%-20% growth control rate; Level 1: below 5% growth control rate; details: post-emergence spray at 4-5 leaf stage, 250 g/ha active ingredient with 450 kg/ha water, rated after 3 weeks in greenhouse
How it was run: as §1

crab grass = experiment: as above; parameters: key: Level 10: completely dead; Level 9: above 95% growth control rate; Level 8: above 90% growth control rate; Level 7: above 80% growth control rate; Level 6: above 70% growth control rate; Level 5: above 60% growth control rate; Level 4: above 50% growth control rate; Level 3: above 20% growth control rate; Level 2: 5%-20% growth control rate; Level 1: below 5% growth control rate; details: post-emergence spray at 4-5 leaf stage, 250 g/ha active ingredient with 450 kg/ha water, rated after 3 weeks in greenhouse
How it was run: as §1

echinochloa = experiment: as above; parameters: key: Level 10: completely dead; Level 9: above 95% growth control rate; Level 8: above 90% growth control rate; Level 7: above 80% growth control rate; Level 6: above 70% growth control rate; Level 5: above 60% growth control rate; Level 4: above 50% growth control rate; Level 3: above 20% growth control rate; Level 2: 5%-20% growth control rate; Level 1: below 5% growth control rate; details: post-emergence spray at 4-5 leaf stage, 250 g/ha active ingredient with 450 kg/ha water, rated after 3 weeks in greenhouse
How it was run: as §1

foxtail = experiment: as above; parameters: key: Level 10: completely dead; Level 9: above 95% growth control rate; Level 8: above 90% growth control rate; Level 7: above 80% growth control rate; Level 6: above 70% growth control rate; Level 5: above 60% growth control rate; Level 4: above 50% growth control rate; Level 3: above 20% growth control rate; Level 2: 5%-20% growth control rate; Level 1: below 5% growth control rate; details: post-emergence spray at 4-5 leaf stage, 250 g/ha active ingredient with 450 kg/ha water, rated after 3 weeks in greenhouse
How it was run: as §1

rorippa indica = experiment: as above; parameters: key: Level 10: completely dead; Level 9: above 95% growth control rate; Level 8: above 90% growth control rate; Level 7: above 80% growth control rate; Level 6: above 70% growth control rate; Level 5: above 60% growth control rate; Level 4: above 50% growth control rate; Level 3: above 20% growth control rate; Level 2: 5%-20% growth control rate; Level 1: below 5% growth control rate; details: post-emergence spray at 4-5 leaf stage, 250 g/ha active ingredient with 450 kg/ha water, rated after 3 weeks in greenhouse
How it was run: as §1

corn = experiment: post-emergence stage experiment, crop (Table 1); details: post-emergence spray at 4-5 leaf stage, 250 g/ha active ingredient with 450 kg/ha water, rated after 3 weeks in greenhouse
How it was run: as §1

wheat [1] = experiment: post-emergence stage experiment, crop (Table 1); details: post-emergence spray at 4-5 leaf stage, 250 g/ha active ingredient with 450 kg/ha water, rated after 3 weeks in greenhouse
How it was run: as §1

rice = experiment: post-emergence stage experiment, crop (Table 1); details: post-emergence spray at 4-5 leaf stage, 250 g/ha active ingredient with 450 kg/ha water, rated after 3 weeks in greenhouse
How it was run: as §1

wheat [2] = experiment: wheat field test, crop selectivity, greenhouse spray at 4 leaf stage; details: 250 g/ha of the active substance; 4 weeks after treatment
How it was run: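 Read-out: fresh weight control rate, scored 4 weeks after a post-emergence spray. Treatment at 4 leaf stage (2-3 weeks after sowing); compound dissolved in acetone, with methyl oleate emulsion, diluted with water.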

chickweed = experiment: wheat field resistant broadleaf weed control, greenhouse spray at 4 leaf stage; parameters: key: Level 10: completely dead; Level 9: above 95% growth control rate; Level 8: above 90% growth control rate; Level 7: above 80% growth control rate; Level 6: above 70% growth control rate; Level 5: above 60% growth control rate; Level 4: above 50% growth control rate; Level 3: above 20% growth control rate; Level 2: 5%-20% growth control rate; Level 1: below 5% growth control rate; details: 250 g/ha of the active substance; 4 weeks after treatment; ALS inhibitor resistant
Description: (§2) The activity level standard of harmful plant destruction (i.e. growth control rate) is as follows:
(§3) The above described growth control rate is fresh weight control rate.
(§4) The seeds of alopecurus japonicas, flixweed, shepherd's purse, corn gromwell, chickweed, beckmannia syzigachne, and annual ryegrass and wheat seeds were put into a plastic pot loaded with soil, and then covered with 0.5-2 cm soil, the seeds were allowed to grow in good greenhouse environment. The test plants were treated at 4 leaf stage 2-3 weeks after sowing. The test compounds of the present invention were dissolved in acetone respectively, then added with methyl oleate emulsion and diluted by certain amount of water to certain concentration. The solution was sprayed to the plant with a sprayer. Then the plants were cultured for 4 weeks in greenhouse.

corn gromwell = experiment: as above; parameters: key: Level 10: completely dead; Level 9: above 95% growth control rate; Level 8: above 90% growth control rate; Level 7: above 80% growth control rate; Level 6: above 70% growth control rate; Level 5: above 60% growth control rate; Level 4: above 50% growth control rate; Level 3: above 20% growth control rate; Level 2: 5%-20% growth control rate; Level 1: below 5% growth control rate; details: 250 g/ha of the active substance; 4 weeks after treatment; ALS inhibitor resistant
Description: as §2, §3, §4

flixweed = experiment: as above; parameters: key: Level 10: completely dead; Level 9: above 95% growth control rate; Level 8: above 90% growth control rate; Level 7: above 80% growth control rate; Level 6: above 70% growth control rate; Level 5: above 60% growth control rate; Level 4: above 50% growth control rate; Level 3: above 20% growth control rate; Level 2: 5%-20% growth control rate; Level 1: below 5% growth control rate; details: 250 g/ha of the active substance; 4 weeks after treatment; ALS inhibitor resistant
Description: as §2, §3, §4

shepherd's purse = experiment: as above; parameters: key: Level 10: completely dead; Level 9: above 95% growth control rate; Level 8: above 90% growth control rate; Level 7: above 80% growth control rate; Level 6: above 70% growth control rate; Level 5: above 60% growth control rate; Level 4: above 50% growth control rate; Level 3: above 20% growth control rate; Level 2: 5%-20% growth control rate; Level 1: below 5% growth control rate; details: 250 g/ha of the active substance; 4 weeks after treatment; ALS inhibitor resistant
Description: as §2, §3, §4

| Compound | weed control effect, Indian mallow (level) (Indian mallow) | weed control effect, Bidens bipinnata (level) (bidens bipinnata) | weed control effect, Crab grass (level) (crab grass) | weed control effect, Echinochloa (level) (echinochloa) | weed control effect, Green foxtail (level) (foxtail) | weed control effect, Rorippa indica (level) (rorippa indica) | effect on crop, Corn (level) (corn) | effect on crop, Wheat (level) (wheat [1]) | effect on crop, Rice (level) (rice) | Wheat (activity level, crop damage) (wheat [2]) | chickweed weed controlling effect (activity level) (chickweed) | corn gromwell weed controlling effect (activity level) (corn gromwell) | flixweed weed controlling effect (activity level) (flixweed) | shepherd's purse weed controlling effect (activity level) (shepherd's purse) |
| --- | --- | --- | --- | --- | --- | --- | --- | --- | --- | --- | --- | --- | --- | --- |
| Cc1nn(C)cc1C(=O)Oc1c(C(=O)c2ccc(C(F)(F)F)c(N3CCCCCC3=O)c2Cl)cnn1C [Compound 052] | 10 | 1 (Level 1: below 5% growth control rate) | 4 (Level 4: above 50% growth control rate) | 5 (Level 5: above 60% growth control rate) | 1 (Level 1: below 5% growth control rate) | 10 | 1 (Level 1: below 5% growth control rate) | 0 | 1 (Level 1: below 5% growth control rate) | 0 | 10 | 10 | 10 | 10 |
| CCOc1c(C(=O)Oc2c(C(=O)c3ccc(C(F)(F)F)c(N4CCCCCC4=O)c3Cl)c(C)nn2C)cnn1C [Compound 056] | 10 | 5 (Level 5: above 60% growth control rate) | 3 (Level 3: above 20% growth control rate) | 5 (Level 5: above 60% growth control rate) | 1 (Level 1: below 5% growth control rate) | 10 | 0 | 0 | 3 (Level 3: above 20% growth control rate) | 0 | 10 | 10 | 10 | 10 |
| Cc1nn(C)cc1C(=O)Oc1c(C(=O)c2ccc(C(F)(F)F)c(N3CCCCCC3=O)c2Cl)c(C)nn1C [Compound 058] | 10 | 4 (Level 4: above 50% growth control rate) | 1 (Level 1: below 5% growth control rate) | 4 (Level 4: above 50% growth control rate) | 1 (Level 1: below 5% growth control rate) | 10 | 1 (Level 1: below 5% growth control rate) | 0 | 2 (Level 2: 5%-20% growth control rate) | 0 | 10 | 10 | 10 | 10 |
| CCOc1c(C(=O)Oc2c(C(=O)c3ccc(C(F)(F)F)c(N4CCCCCC4=O)c3Cl)c(C3CC3)nn2C)cnn1C [Compound 060] | 10 | 7 (Level 7: above 80% growth control rate) | 3 (Level 3: above 20% growth control rate) | 5 (Level 5: above 60% growth control rate) | 1 (Level 1: below 5% growth control rate) | 10 | 0 | 0 | 1 (Level 1: below 5% growth control rate) | 0 | 10 | 10 | 10 | 10 |
| Cn1cc(C(=O)Oc2c(C(=O)c3ccc(C(F)(F)F)c(N4CCCCCC4=O)c3Cl)c(C3CC3)nn2C)cn1 [Compound 061] | 10 | 7 (Level 7: above 80% growth control rate) | 4 (Level 4: above 50% growth control rate) | 5 (Level 5: above 60% growth control rate) | 1 (Level 1: below 5% growth control rate) | 10 | 1 (Level 1: below 5% growth control rate) | 0 | 1 (Level 1: below 5% growth control rate) | 0 | 10 | 10 | 10 | 10 |
| Cc1cnn(-c2c(C(F)(F)F)ccc(C(=O)c3cnn(C)c3OC(=O)c3cn(C)nc3C)c2Cl)c1 [Compound 082] | 9 (Level 9: above 95% growth control rate) | 4 (Level 4: above 50% growth control rate) | 6 (Level 6: above 70% growth control rate) | 10 | 10 | 10 | 3 (Level 3: above 20% growth control rate) | 0 | 3 (Level 3: above 20% growth control rate) | 0 | 10 | 10 | 10 | 10 |
